Laboratory results published in publication PMC8199331, “Baicalein Ameliorates Streptococcus suis-Induced Infection In Vitro and In Vivo” (International Journal of Molecular Sciences, 2021).

Target: SLY (suilysin) (Streptococcus suis, UniProt Q55996)
Assay: biochemical

Chain of SLY (suilysin) (Q55996 28-497 limits assumed): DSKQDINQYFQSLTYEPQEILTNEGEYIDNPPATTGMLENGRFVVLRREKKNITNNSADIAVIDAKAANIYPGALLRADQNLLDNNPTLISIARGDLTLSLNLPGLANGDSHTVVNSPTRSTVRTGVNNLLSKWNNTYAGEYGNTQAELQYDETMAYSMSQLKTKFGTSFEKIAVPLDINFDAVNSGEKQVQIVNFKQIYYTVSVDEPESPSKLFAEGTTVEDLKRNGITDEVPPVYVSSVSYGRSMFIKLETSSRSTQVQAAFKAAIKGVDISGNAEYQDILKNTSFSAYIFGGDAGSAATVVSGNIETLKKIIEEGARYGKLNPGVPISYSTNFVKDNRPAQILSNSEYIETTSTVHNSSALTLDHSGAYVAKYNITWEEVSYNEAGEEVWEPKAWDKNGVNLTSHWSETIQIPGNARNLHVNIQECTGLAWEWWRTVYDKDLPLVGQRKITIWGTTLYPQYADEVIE

O=c1cc(-c2ccccc2)oc2cc(O)c(O)c(O)c12 [Baicalein]
Kd: 865 nM
